Experimental findings from US8198279B2, “Pyrido[2,3-b]pyrazin-8-substituted compounds and their use” (Institute of Cancer Research: Royal Cancer Hospital (The), priority 2007, dated 2012) are described below.

For one assay, the target named is T1, B-RAF (Homo sapiens, UniProt P15056, V600E).
T1 construct: made in house
The assay can be described thus: DELFIA Kinase Assay. In kind it is biochemical. Particulars: 100 μM ATP, GST-MEK substrate. Summed up: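 Recombinant B-RAF (V600E) with GST-MEK substrate was preincubated with compound for 10 min at room temperature, then reacted with 100 μM ATP for 45 min on milk-preblocked wells, with antibody detection by DELFIA europium fluorescence. Response is taken as % of DMSO control after empty-vector blank subtraction; IC50 is from a variable-slope sigmoidal fit, mean of usually three independent runs.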

Another assay has as its system pERK. The assay can be described thus: Cell Based Phospho-ERK Assay. Particulars: 6 h, 6 hours incubation with test compound. The method, then: Biological Methods—Cell Based Phosho-ERK Assay
Compounds were assessed using a cell-based assay which was performed according to the following protocol.
Plate out 16,000 cells/well in 99 μL medium in a 96-well plate.
• 1. Add 1 μL inhibitor to the cells (total […] solution). • 2. Incubate the cells with test compound for 6 hours at 37° C. • 3. Aspirate off the solution from all of the wells. • 4. Fixate the cells with 100 μL 4% formaldehyde/0.25% Triton X-100 PBS per well. • 5. Incubate the plate for 1 hour at 4° C. • 6. Aspirate off the fixing solution and add 300 μL TBS per well. • 7. Leave the plate overnight at 4° C. Day 2: • 1. Wash the plate 2× with 200 μL PBS per well. • 2. Block with 100 μL 5% dried milk in TBS. • 3. Incubate the plate for 20 minutes at 37° C. • 4. Wash the plate 2× with 0.1% tween/H2O. • 5. Add 50 μL of 3 μg/mL primary antibody pERK (Sigma M8159), diluted in 5% milk powder/TBS, to each well. • 6. Incubate the plate for 2 hours at 37° C. • 7. Wash the plate 3× with 0.1% tween/H2O. • 8. Add 50 μL of 0.45 μg/mL secondary Europium-labelled anti-mouse antibody (Perkin Elmer) to each well. • 9. Incubate the plate for 1 hour at 37° C. • 10. Wash the plate 3× with 0.1% tween/H2O. • 11. Add 100 μL enhancement solution (Perkin Elmer) to each well. • 12. Leave the plate for approximately 10 minutes at room temperature before gently shaking the plate. • 13. Read Europium Time Resolved Fluorescence in Victor2. • 14. Wash the plate 2× with 0.1% tween/H2O. • 15. Measure the protein concentration with BCA (Sigma) by adding 200 μL of solution per well. • 16. Incubate the plate for 30 minutes at 37° C. • 17. Read absorbance levels at 570 nm in a plate reader.
Note that Europium counts are normalised for protein levels by dividing counts by absorbance.
Values for the blank (no cells) are subtracted from all values. The DMSO controls are set as 100% activity and assay points (the response) are calculated as a percentage of the DMSO control. Data are plotted using Graphpad Prism software and a non-linear regression line is calculated using a variable slope sigmoidal dose-response equation (Y=Bottom+(Top−Bottom)/(1+10^((LogEC50−X)*HillSlope)) where X is the logarithm of concentration. Y is the response). The IC50 generated by this procedure is the concentration of the drug that produces a percentage control fluorescence value midway between the saturation, and zero-effect plateaus. Three independent assays are usually performed and the mean IC50 is reported.

For the next assay, the system named is WM266.4 melanoma cells. The assay can be described thus: SRB Cell Proliferation Assay (SRB GI50). In kind it is cell-based. Particulars: Homo sapiens, WM 266-4, 144 h, 6 days growth. The method, then:
Biological Methods —SRB Cell Proliferation Assay (SRB GI50)
Cultures of WM266.4 melanoma cells are routinely cultured in DMEM/10% foetal bovine serum, at 37° C., in 5% CO2 water saturated atmosphere. Cultures are maintained in exponential growth phase by sub-culturing before having become confluent (3-5 day intervals). Single cell suspensions are prepared by harvesting an 80 cm^2 tissue culture flask with 5 mL commercial trypsin EDTA. After 5 minutes, the detached cells are mixed with 5 mL fully complemented culture medium and centrifugally pelleted (1000 rpm for 7 minutes). After aspirating the supernatant, the cell pellet is re-suspended in 10 mL fresh medium and the cells fully disaggregated by drawing the whole volume up/down 5 times through a 19-gauge needle. The concentration of the cells is determined using a haemocytometer (1/10 dilution). A suitable volume to give at least a 2-fold excess for the number of tests being conducted, typically 100-200 mL, is prepared by diluting the cell suspension to 10,000/mL, and 100 μL/well dispensed into 96 well plates using a programmable 8-channel peristaltic pump, giving 1000 cells/well, leaving column 12 blank. The plates are returned to the incubator for 24 hours to allow the cells to re-attach.
The compounds being tested are prepared at 20 mM in dimethylsulphoxide. Aliquots (200 μL) are diluted into 20 mL culture medium giving 200 μM, and 10 serial dilutions of 3× performed by transferring 5 mL to 10 mL. Aliquots (100 μL) of each dilution are added to the wells, using an 8-channel pipettor, thus performing a final further 2× dilution, and giving doses ranging from 100 μM to 0.005 μM. Column 11 receives plain culture medium only. Each compound is tested in quadruplicate, each replicate being the average of four wells, and two plates per compound.
After a further 6 days growth, the plates are emptied, and the cells are fixed in 10% trichloroacteic acid for 10 minutes on ice. After thorough rinsing in running tap water, the plates are dried, and stained by adding 50 μL of a solution of 0.1% sulphorhodamine-B in 1% acetic acid, for 10 minutes at room temperature. The stain is poured out and the plates thoroughly rinsed under a stream of 1% acetic acid, thus removing unbound stain, and dried. The bound stain is taken into solution by addition of 150 μL Tris buffer pH 8, followed by 10 minutes on a plate-shaker (approximately 500 rpm). The absorbance at 540 nm in each well (being proportional to the number of cells present) is determined using a plate reader.
After averaging the results in rows A-D and E-H, the blank value (row 12) is subtracted, and results expressed as percentage of the untreated value (row 11). […] The GI50 generated by this procedure is the concentration of the drug that produces a percentage control A540 midway between the saturation, and zero-effect plateaus.

pIC50: −log10 of the molar value.

T1 sequence (P15056 whole entry V600E): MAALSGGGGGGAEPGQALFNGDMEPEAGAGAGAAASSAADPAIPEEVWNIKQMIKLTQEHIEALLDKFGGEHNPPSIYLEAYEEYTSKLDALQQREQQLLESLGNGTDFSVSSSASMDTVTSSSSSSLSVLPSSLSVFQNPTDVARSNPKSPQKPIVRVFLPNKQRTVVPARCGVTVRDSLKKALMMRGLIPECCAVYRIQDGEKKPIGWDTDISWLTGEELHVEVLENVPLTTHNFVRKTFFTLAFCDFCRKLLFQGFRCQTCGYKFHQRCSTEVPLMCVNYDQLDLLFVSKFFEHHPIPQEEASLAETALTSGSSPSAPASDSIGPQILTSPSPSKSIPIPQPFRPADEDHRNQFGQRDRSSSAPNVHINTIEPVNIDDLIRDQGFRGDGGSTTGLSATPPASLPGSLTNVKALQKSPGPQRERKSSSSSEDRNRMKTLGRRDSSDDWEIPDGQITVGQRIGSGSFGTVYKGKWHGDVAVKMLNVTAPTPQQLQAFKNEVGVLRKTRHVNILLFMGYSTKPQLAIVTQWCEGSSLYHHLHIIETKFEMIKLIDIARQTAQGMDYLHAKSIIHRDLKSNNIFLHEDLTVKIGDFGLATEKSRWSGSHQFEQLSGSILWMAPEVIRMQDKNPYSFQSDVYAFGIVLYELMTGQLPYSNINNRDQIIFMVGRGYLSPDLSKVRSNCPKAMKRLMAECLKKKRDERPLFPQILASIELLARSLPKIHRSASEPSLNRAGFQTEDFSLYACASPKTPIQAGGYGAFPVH

As to `O=C(Nc1ccc(Oc2ccnc3[nH]c(=O)cnc23)cc1F)Nc1cc(C(F)(F)F)ccc1Oc1cccnc1` [AA-093, 1-(2-fluoro-4-(3-oxo-3,4-dihydropyrido[3,2-b]pyrazin-8-yloxy)phenyl)-3-(2-(pyridin-3-yloxy)-5-(trifluoromethyl)phenyl)urea], the pIC50 (as a rule, the IC50 on a negative log10 scale, so that one unit is a factor of ten) against B-RAF is over 7.00; in the assay with pERK, over 6.00. Further, the GI50 – broadly, the concentration that inhibits growth by half – in the assay with WM266.4 melanoma cells fell in the range of 1000 to 10000 nM.
The matching figures for `O=C(Nc1cncc(C(F)(F)F)c1)Nc1ccc(Oc2ccnc3[nH]c(=O)cnc23)cc1F` [AA-069, 1-(2-fluoro-4-(3-oxo-3,4-dihydropyrido[2,3-b]pyrazin-8-yloxy)phenyl)-3-(5-(trifluoromethyl)pyridin-3-yl)urea]: over 7.00, 5.00 to 6.00 and 1000 to 10000 nM.
The like results for `CC(C)(C)c1cc(NC(=O)Nc2ccc(Oc3ccnc4[nH]c(=O)c(N)nc34)c3ccccc23)n(-c2ccccc2)n1` [AA-080, 1-(4-(2-amino-3-oxo-3,4-dihydropyrido[2,3-b]pyrazin-8-yloxy)naphthalen-1-yl)-3-(3-tert-butyl-1-phenyl-1H-pyrazol-5-yl)urea] were, in that order, over 7.00, over 6.00 and under 1000 nM.
For the compound `CC(C)(C)c1cc(NC(=O)Nc2ccc(Oc3ccnc4[nH]c(=O)cnc34)cc2F)n(CC2CC2)n1` [AA-097, 1-(3-Tert-butyl-1-(cyclopropylmethyl)-1H-pyrazol-5-yl)-3-(2-fluoro-4-(3-oxo-3,4-dihydropyrido[3,2-b]pyrazin-8-yloxy)phenyl)urea], the figures for the pIC50 against B-RAF and in the assay on pERK were over 7.00 and over 6.00, respectively. In addition, the 50% growth inhibitory concentration (GI50) in the assay with WM266.4 melanoma cells is 1000 to 10000 nM.
`Cc1ccc(-n2nc(C(C)(C)C)cc2NC(=O)Nc2ccc(Oc3ccnc4nc(N5CCOCC5)cnc34)cc2F)cc1` [AA-073, 1-(3-tert-butyl-1-p-tolyl-1H-pyrazol-5-yl)-3-(2-fluoro-4-(3-morpholinopyrido[3,2-b]pyrazin-8-yloxy)phenyl)urea]: in the assay on pERK, the negative logarithm of the IC50 (pIC50) was over 6.00. Further, in the assay with WM266.4 melanoma cells, the 50% growth inhibitory concentration (GI50) was under 1000 nM.
With `CC(C)(C)c1cc(NC(=O)Nc2ccc(Oc3ccnc4ncc(=O)[nH]c34)cc2F)n(-c2ccccc2)n1` [AA-089, 1-(3-tert-butyl-1-phenyl-1H-pyrazol-5-yl)-3-(2-fluoro-4-(2-oxo-1,2-dihydropyrido[3,2-b]pyrazin-8-yloxy)phenyl)urea], the pIC50 on B-RAF is 6.00 to 7.00; in the assay on pERK it was over 6.00. The same compound had a 50% growth inhibitory concentration (GI50) with WM266.4 melanoma cells of under 1000 nM.
The like results for `C=CCn1nc(C(C)(C)C)cc1NC(=O)Nc1ccc(Oc2ccnc3[nH]c(=O)cnc23)cc1F` [AA-095, 5-[(4-amino-2-fluorophenyl-oxy)carbonylamino-5-(1-N-allyl-3-t-butyl-imidazolyl)]-pyridin-[2, 3]-3-pyrazin-2-one] were, in that order, over 7.00, over 6.00 and 1000 to 10000 nM.
The like results for `Cc1ccc(-n2nc(C(C)(C)C)cc2NC(=O)Nc2ccc(Oc3ccnc4[nH]c(=O)cnc34)cc2F)cn1` [AA-084, 1-(3-tert-butyl-1-(6-methylpyridin-3-yl)-1H-pyrazol-5-yl)-3-(2-fluoro-4-(3-oxo-3,4-dihydropyrido[3,2-b]pyrazin-8-yloxy)phenyl)urea] were, in that order, 6.00 to 7.00, over 6.00 and under 1000 nM.
The like results for `CSc1cc(Oc2ccnc3ncc(=O)[nH]c23)ccc1NC(=O)Nc1cc(C(C)(C)C)nn1-c1ccccc1` [AA-066, 1-(3-tert-butyl-1-phenyl-1H-pyrazol-5-yl)-3-(2-(methylthio)-4-(2-oxo-1,2-dihydropyrido[2,3-b]pyrazin-8-yloxy)phenyl)urea] were, in that order, 6.00 to 7.00, over 6.00 and under 1000 nM.
Take `Cc1ccc(-n2nc(C(C)(C)C)cc2NC(=O)Nc2ccc(Oc3ccnc4[nH]c(=O)cnc34)c(F)c2)cc1` [AA-088, 1-(3-tert-butyl-1-p-tolyl-1H-pyrazol-5-yl)-3-(3-fluoro-4-(3-oxo-3,4-dihydropyrido[2,3-b]pyrazin-8-yloxy)phenyl)urea]: the pIC50 against B-RAF is over 7.00; with pERK it was over 6.00. The compound further registered a GI50 in the assay on WM266.4 melanoma cells of under 1000 nM.
The matching figures for `Cc1ccc(-n2nc(C(C)(C)C)cc2NC(=O)Nc2cccc(Oc3ccnc4[nH]c(=O)c(C)nc34)c2)cc1` [AA-078, 1-(3-tert-butyl-1-p-tolyl-1H-pyrazol-5-yl)-3-(3-(2-methyl-3-oxo-3,4-dihydropyrido[2,3-b]pyrazin-8-yloxy)phenyl)urea]: 6.00 to 7.00, over 6.00 and under 1000 nM.
The like results for `CC(C)(C)c1cc(NC(=O)Nc2cccc(Oc3ccnc4[nH]c(=O)cnc34)c2)n(-c2ccccc2)n1` [AA-075, 1-(3-tert-butyl-1-phenyl-1H-pyrazol-5-yl)-3-(3-(3-oxo-3,4-dihydropyrido[2,3-b]pyrazin-8-yloxy)phenyl)urea] were, in that order, over 7.00, over 6.00 and under 1000 nM.
For `Cc1ccc(-n2nc(C(C)(C)C)cc2NC(=O)Nc2ccc(Oc3ccnc4[nH]c(=O)c(N)nc34)cc2F)cc1` [AA-057, 1-(4-(2-amino-3-oxo-3,4-dihydropyrido[2,3-b]pyrazin-8-yloxy)-2-fluorophenyl)-3-(3-tert-butyl-1-p-tolyl-1H-pyrazol-5-yl)urea], the pIC50 on B-RAF is 6.00 to 7.00; in the assay with pERK it was over 6.00. In addition, the 50% growth inhibitory concentration (GI50) in the assay on WM266.4 melanoma cells is under 1000 nM.
`CN(C)c1cnc2c(Oc3ccc(NC(=O)Nc4cc(C(C)(C)C)nn4-c4ccccc4)c(F)c3)ccnc2n1` [AA-070, 1-(3-Tert-butyl-1-phenyl-1H-pyrazol-5-yl)-3-(4-(3-(dimethylamino)pyrido[3,2-b]pyrazin-8-yloxy)-2-fluorophenyl)urea]: the negative logarithm of the IC50 (pIC50) with pERK was 5.00 to 6.00. The compound also returned a GI50 in the assay on WM266.4 melanoma cells of 1000 to 10000 nM.
As for `CC(C)(C)c1cc(NC(=O)Nc2ccc(Oc3ccnc4[nH]c(=O)cnc34)cc2F)n(CC2CCC2)n1` [AA-099, 1-(3-Tert-butyl-1-(cyclobutylmethyl)-1H-pyrazol-5-yl)-3-(2-fluoro-4-(3-oxo-3,4-dihydropyrido[3,2-b]pyrazin-8-yloxy)phenyl)urea], in the assay with pERK, the pIC50 was over 6.00. Moreover, the GI50 in the assay on WM266.4 melanoma cells lay in the range of 1000 to 10000 nM.
